In ChEMBL document CHEMBL1201862, “PubChem BioAssay data set” (2004):
Active and inactive are the calls of the source.

Assays:
[1] = target: T1, Intestinal-type alkaline phosphatase (Mus musculus, UniProt P24822); experiment: PubChem AID 488874; format: functional
[2] = target: T2, Intestinal-type alkaline phosphatase (Homo sapiens, UniProt P09923); experiment: inhibition of human intestinal alkaline phosphatase – biochemical, luminescent, uHTS hits, set 2, dose response (AID 488793); format: functional
T2 sequence (P09923 whole entry): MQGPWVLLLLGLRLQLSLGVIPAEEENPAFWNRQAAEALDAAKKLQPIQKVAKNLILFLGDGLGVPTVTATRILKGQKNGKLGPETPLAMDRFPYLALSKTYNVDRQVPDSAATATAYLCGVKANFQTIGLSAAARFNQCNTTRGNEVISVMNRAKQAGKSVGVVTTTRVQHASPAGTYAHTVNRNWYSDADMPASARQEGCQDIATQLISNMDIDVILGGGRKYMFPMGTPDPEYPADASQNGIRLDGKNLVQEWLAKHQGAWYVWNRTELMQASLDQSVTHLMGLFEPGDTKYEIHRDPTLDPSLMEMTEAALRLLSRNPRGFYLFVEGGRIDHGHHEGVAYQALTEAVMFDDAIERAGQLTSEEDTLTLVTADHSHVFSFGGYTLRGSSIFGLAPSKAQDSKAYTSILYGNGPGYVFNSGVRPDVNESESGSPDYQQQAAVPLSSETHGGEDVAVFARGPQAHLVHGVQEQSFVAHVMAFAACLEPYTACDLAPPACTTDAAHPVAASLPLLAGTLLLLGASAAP

[3] = target: T2, Intestinal-type alkaline phosphatase; experiment: Dose Response confirmation of uHTS hits from a small molecule inhibitors of human intestinal alkaline phosphatase via a luminescent assay. [Related pubchem assays (depositor defined):AID2544, AID2574]; format: functional
[4] = target: T3, Alkaline phosphatase, tissue-nonspecific isozyme (Homo sapiens, UniProt P05186); experiment: inhibition of tissue-nonspecific alkaline phosphatase – biochemical, dose response (AID 488882); format: functional
T3 sequence (P05186 whole entry): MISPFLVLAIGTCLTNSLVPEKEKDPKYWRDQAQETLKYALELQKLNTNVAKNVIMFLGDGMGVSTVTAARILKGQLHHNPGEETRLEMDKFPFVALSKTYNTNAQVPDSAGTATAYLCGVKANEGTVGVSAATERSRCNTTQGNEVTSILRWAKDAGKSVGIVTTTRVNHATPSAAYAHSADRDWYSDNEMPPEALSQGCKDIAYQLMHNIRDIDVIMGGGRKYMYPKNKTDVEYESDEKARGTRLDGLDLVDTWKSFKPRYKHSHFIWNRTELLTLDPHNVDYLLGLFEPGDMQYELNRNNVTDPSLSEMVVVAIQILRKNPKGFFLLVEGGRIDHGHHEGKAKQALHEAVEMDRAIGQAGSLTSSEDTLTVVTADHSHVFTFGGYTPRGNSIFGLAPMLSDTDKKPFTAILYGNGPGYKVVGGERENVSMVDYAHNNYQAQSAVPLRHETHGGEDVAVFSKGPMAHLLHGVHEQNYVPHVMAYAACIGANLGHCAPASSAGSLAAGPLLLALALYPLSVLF

HEK293 = experiment: cells; format: functional, cell-based; details: Homo sapiens
[5] = target: Nuclear receptor subfamily 0 group B member 1 (Homo sapiens, UniProt P51843); experiment: Luminescence-based cell-based high throughput dose response assay for inhibitors of the orphan nuclear receptor subfamily 0, group B, member 1 (DAX1; NR0B1). [Related pubchem assays (depositor defined):AID504766, AID504790]; format: functional
Nuclear receptor subfamily 0 group B member 1, sequence (P51843 whole entry): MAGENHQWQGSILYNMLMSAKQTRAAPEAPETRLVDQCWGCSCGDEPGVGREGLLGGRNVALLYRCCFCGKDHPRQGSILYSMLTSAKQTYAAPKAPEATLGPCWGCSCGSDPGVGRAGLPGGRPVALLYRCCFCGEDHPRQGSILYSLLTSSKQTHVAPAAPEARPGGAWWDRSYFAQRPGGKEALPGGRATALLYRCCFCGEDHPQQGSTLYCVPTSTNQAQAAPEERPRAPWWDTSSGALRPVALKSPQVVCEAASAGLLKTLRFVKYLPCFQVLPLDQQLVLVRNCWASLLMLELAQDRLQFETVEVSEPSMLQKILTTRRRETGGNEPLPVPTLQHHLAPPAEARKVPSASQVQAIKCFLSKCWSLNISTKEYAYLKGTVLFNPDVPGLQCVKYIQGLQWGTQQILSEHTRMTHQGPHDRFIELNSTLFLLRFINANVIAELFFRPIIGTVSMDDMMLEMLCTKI

[6] = viability loss in HeLa cells – cytotoxicity control for MgcRacGAP inhibitor project, dose response (AID 624300); format: functional
[7] = target: T4, Rac GTPase-activating protein 1 (Homo sapiens, UniProt Q9H0H5); experiment: blockers of MgcRacGAP-driven Rac1 GTP hydrolysis – biochemical, ADP Hunter fluorescence, primary and confirmatory, confirmation (AID 624330); format: functional
T4 sequence (Q9H0H5 whole entry): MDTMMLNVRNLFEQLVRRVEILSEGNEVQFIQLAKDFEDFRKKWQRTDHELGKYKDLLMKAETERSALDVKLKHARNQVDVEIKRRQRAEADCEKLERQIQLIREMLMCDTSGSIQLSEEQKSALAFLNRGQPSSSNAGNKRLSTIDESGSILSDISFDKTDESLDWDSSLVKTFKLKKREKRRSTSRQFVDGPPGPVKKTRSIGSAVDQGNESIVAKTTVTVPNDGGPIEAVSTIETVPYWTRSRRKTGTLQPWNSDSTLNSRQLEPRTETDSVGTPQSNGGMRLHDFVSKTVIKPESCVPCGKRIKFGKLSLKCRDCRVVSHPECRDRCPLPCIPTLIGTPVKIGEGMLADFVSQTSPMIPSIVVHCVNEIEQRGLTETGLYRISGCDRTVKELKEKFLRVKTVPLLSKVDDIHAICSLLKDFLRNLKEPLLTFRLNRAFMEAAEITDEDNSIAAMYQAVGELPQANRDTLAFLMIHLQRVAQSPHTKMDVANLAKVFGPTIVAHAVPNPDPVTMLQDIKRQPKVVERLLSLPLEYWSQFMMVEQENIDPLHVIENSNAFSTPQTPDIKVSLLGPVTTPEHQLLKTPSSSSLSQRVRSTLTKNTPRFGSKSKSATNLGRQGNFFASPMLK

[8] = target: T5, RNA-binding protein pos-1 (Caenorhabditis elegans, UniProt G5EF15); experiment: disruptors of C. elegans POS-1 RNA interaction – biochemical, fluorescence polarization, dose response (AID 1964);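 note: purified POS-1 fused to maltose binding protein made in E. coli; potency of compounds blocking POS-1 binding to fluorescent RNA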
T5 sequence (G5EF15 whole entry): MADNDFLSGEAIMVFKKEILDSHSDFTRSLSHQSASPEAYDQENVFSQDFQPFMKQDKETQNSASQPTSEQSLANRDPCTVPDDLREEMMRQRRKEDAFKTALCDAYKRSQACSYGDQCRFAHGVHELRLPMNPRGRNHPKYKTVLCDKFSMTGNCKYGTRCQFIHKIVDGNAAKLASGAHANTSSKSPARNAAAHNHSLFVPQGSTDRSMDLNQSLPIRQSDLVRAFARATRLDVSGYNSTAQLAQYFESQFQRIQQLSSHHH

[9] = target: T6, Zinc finger protein mex-5 (Caenorhabditis elegans, UniProt Q9XUB2); experiment: potency of MEX-5 RNA-binding blockers – biochemical, C. elegans, fluorescence polarization, dose response (AID 1960)
T6 sequence (Q9XUB2 whole entry): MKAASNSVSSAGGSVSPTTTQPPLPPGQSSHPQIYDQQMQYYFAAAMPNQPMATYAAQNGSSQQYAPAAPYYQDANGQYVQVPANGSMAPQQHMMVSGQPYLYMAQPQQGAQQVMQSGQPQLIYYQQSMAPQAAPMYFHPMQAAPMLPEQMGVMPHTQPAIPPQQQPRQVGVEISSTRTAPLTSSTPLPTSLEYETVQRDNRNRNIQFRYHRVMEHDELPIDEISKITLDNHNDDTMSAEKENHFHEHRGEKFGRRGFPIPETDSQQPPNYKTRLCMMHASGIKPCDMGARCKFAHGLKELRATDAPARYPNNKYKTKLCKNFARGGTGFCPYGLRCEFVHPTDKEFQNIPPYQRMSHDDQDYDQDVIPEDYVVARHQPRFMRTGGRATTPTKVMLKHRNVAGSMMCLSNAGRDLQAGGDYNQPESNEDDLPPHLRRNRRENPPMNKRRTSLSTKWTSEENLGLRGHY

[10] = target: T1, Intestinal-type alkaline phosphatase; experiment: PubChem AID 488785; format: functional
[11] = target: T3, Alkaline phosphatase, tissue-nonspecific isozyme; experiment: TNAP enzyme inhibition by screening hits, dose response, selectivity assay for mouse IAP inhibitor project, biochemical, human TNAP, uHTS hits (AID 488906); format: functional
[12] = target: T2, Intestinal-type alkaline phosphatase; experiment: inhibition of human intestinal alkaline phosphatase – biochemical, dose response (AID 488876); format: functional
[13] = target: Dual specificity tyrosine-phosphorylation-regulated kinase 1A (Rattus norvegicus, UniProt Q63470); format: biochemical, Homo sapiens
[14] = target: Long-chain-fatty-acid--AMP ligase FadD28 (Mycobacterium tuberculosis, UniProt P9WQ59); experiment: Fluorescence polarization aasay to screen for inhibitors that compete for the binding of FadD28 to a bisubstrate Measured in Biochemical System Using Plate Reader - 2147-01_Inhibitor_Dose_CherryPick_Activity.; format: functional, Mycobacterium tuberculosis H37Rv
Long-chain-fatty-acid--AMP ligase FadD28, sequence (P9WQ59 whole entry): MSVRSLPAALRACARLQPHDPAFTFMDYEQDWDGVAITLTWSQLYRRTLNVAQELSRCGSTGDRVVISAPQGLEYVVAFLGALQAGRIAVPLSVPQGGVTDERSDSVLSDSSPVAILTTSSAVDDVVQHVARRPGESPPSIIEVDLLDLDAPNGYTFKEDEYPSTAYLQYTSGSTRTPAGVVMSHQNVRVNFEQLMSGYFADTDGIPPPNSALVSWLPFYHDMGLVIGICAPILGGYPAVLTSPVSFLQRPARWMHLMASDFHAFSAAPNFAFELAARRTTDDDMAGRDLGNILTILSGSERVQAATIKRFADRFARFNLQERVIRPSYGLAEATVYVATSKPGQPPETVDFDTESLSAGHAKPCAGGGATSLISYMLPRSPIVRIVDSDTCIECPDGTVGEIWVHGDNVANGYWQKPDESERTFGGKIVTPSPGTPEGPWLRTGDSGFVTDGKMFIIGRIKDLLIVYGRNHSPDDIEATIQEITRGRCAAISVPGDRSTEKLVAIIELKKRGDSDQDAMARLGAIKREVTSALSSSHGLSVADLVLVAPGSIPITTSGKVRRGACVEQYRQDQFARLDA

[15] = target: sn-1-specific diacylglycerol lipase ABHD11 (Mus musculus, UniProt Q8K4F5); experiment: Late stage assay provider results from the probe development effort to identify inhibitors of LYPLA1: fluorescence-based cell-based gel-based Activity-Based Protein Profiling (ABPP) IC50 for anti-target ABHD11. [Related pubchem assays (depositor defined):AID2174, AID2177, AID2202, AID2203, AID2232, AID2233, AID493105, AID493108, AID493109, AID493110, AID493111, AID493154, AID493161, AID504892]; format: functional
sn-1-specific diacylglycerol lipase ABHD11, sequence (Q8K4F5 whole entry): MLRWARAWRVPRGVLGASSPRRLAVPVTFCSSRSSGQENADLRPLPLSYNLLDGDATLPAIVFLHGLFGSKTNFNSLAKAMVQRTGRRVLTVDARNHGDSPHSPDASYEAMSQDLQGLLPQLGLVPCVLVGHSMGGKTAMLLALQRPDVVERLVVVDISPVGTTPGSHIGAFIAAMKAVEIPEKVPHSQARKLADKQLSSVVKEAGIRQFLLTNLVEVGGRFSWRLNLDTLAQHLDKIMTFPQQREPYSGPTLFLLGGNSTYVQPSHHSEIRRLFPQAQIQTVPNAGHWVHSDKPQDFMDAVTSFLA

A-375 [16] = experiment: MITF: Counter assay: A375 proliferation Measured in Cell-Based System Using Plate Reader - 2084-03_Inhibitor_Dose_DryPowder_Activity. [Related pubchem assays (depositor defined):AID488944]; format: functional; details: Homo sapiens
A-375 [17] = experiment: proliferation inhibition in MITF-low A375 cells – cell-based, cherry-pick samples, set 2, counter-screen for MITF modulator project, dose response (AID 540335); format: functional; details: Homo sapiens
[18] = target: Lysine-specific demethylase 4C (Homo sapiens, UniProt Q9H3R0); experiment: inhibition of JMJD2C H3K9me3 demethylation – biochemical, DELFIA europium, cherry-picked samples, dose response (AID 488835); format: functional
Lysine-specific demethylase 4C, sequence (Q9H3R0 whole entry): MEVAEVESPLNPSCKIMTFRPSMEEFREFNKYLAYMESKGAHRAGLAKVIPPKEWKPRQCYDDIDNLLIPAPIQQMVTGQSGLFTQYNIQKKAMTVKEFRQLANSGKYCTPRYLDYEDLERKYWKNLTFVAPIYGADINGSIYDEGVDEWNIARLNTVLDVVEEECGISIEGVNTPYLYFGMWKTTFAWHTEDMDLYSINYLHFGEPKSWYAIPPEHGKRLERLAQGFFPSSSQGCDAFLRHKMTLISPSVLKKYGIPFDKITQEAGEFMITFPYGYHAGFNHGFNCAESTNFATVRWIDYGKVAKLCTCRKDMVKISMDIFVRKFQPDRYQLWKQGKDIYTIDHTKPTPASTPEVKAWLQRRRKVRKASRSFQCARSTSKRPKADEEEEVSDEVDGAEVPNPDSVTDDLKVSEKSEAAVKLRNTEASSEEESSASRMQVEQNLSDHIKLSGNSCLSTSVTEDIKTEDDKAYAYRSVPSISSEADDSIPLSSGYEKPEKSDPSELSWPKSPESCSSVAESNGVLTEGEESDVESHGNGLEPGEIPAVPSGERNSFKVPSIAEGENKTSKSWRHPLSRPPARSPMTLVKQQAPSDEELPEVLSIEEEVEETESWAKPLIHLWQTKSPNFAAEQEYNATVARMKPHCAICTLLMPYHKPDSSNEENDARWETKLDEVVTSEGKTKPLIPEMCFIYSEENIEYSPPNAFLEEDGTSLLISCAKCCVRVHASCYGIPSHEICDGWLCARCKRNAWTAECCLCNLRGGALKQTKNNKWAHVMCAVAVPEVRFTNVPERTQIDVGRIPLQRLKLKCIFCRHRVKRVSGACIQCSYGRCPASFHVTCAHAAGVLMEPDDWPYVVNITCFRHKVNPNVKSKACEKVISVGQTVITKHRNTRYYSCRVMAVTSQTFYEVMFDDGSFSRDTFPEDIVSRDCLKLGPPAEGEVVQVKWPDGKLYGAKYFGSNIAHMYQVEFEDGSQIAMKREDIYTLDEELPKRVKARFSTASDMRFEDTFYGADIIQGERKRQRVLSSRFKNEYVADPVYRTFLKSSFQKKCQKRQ

T1 sequence (P24822 whole entry): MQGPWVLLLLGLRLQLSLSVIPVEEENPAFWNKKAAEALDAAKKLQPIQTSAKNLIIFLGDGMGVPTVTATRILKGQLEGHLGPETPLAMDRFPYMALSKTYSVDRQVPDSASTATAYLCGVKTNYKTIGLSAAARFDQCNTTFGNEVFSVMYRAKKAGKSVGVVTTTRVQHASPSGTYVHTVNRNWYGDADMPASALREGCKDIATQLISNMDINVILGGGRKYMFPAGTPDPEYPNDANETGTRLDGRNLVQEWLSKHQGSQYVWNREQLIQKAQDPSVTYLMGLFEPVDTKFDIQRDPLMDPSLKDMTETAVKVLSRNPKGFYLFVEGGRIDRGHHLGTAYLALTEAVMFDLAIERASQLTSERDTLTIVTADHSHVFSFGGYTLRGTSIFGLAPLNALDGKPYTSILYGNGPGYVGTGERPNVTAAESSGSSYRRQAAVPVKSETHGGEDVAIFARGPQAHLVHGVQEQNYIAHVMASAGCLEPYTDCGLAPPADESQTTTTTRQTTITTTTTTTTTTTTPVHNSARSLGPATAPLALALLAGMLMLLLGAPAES

Question: For `O=c1oc(-c2ccc(O)c(O)c2)cc2cc(O)cc(O)c12` [THUNBERGINOL B], which IC50 [1] is on record?
Answer: 7.57 µM (active)

Question: What about the IC50 [2] of the same compound?
Answer: 0.565 µM (active)

Question: And the IC50 [3]?
Answer: 2.17 µM (active)

Question: And the IC50 [4]?
Answer: 19.5 µM (active)

Question: And the IC50 (HEK293)?
Answer: > 67.5 µM (inactive)

Question: And the IC50 [5]?
Answer: > 67.5 µM (inactive)

Question: And the CC50 [6]?
Answer: 100 µM (active)

Question: And the IC50 [7]?
Answer: 20.4 µM (active)

Question: What does the source list for `NS(=O)(=O)c1ccc(-c2ccc(/C=C3\NC(=S)NC3=O)o2)cc1`?
Answer: EC50 [8]: 21.7 µM (inconclusive); EC50 [9]: 10.8 µM (inconclusive); IC50 [10]: 9.48 µM (active); IC50 [11]: 35.3 µM (active); IC50 [12]: > 100 µM (inactive); AC50 [13]: 18.3 µM (active); AC50 [14]: 77.2 µM (active)

Question: Which IC50 [15] does the source give for `COCC1CCCCN1C(=O)n1ncc(C(O)(c2ccccc2)c2ccccc2)n1` (centres undefined) here?
Answer: 0.000137 µM (active)

Question: What does the source list for `Cn1c(/C(C#N)=C/c2ccc(-c3ccc(S(N)(=O)=O)cc3)o2)nc2ccccc21`?
Answer: AC50 (A-375 [16]): > 11 µM (active); AC50 (A-375 [17]): > 11 µM (active)

Question: Which AC50 [18] does the source give for `C=CCN1C(=O)NC(=O)/C(=C/c2ccoc2)C1=O` here?
Answer: 22.2 µM (active)
